Laboratory results published in ChEMBL document CHEMBL1201862, “PubChem BioAssay data set” (2004).
The source made the active and inactive calls. Peptide text beside a SMILES is read from it.

Columns and labels:
Cytochrome P450 3A4 = Cytochrome P450 3A4 (Homo sapiens, UniProt P08684);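 note: CYP3A4 tested as one member of a cytochrome P450 panel screen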
Cytochrome P450 2C19 = Cytochrome P450 2C19 (Homo sapiens, UniProt P33261); assay: Cytochrome panel assay with activity outcomes. Panel member name: p450-cyp2c19 Compounds with AC50 equal or less than 10 uM are considered active; assay type: functional; details: read-out: AC50
Sequence of Cytochrome P450 2C19 (P33261 whole entry): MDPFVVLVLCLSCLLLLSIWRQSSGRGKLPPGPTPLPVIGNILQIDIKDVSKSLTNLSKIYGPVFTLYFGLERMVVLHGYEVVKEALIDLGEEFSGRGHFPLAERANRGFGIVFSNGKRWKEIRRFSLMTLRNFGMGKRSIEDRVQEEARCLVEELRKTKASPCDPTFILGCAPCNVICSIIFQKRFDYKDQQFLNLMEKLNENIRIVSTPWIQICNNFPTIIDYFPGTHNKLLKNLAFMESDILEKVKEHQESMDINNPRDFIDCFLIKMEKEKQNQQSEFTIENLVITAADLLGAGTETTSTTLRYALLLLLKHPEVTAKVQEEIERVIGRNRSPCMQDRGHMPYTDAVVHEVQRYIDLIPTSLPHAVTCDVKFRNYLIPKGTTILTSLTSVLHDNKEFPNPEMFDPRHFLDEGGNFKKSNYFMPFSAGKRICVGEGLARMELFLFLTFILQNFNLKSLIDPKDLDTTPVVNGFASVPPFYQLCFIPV

Cytochrome P450 2C9 = Cytochrome P450 2C9 (Homo sapiens, UniProt P11712)
Sequence of Cytochrome P450 2C9 (P11712 whole entry): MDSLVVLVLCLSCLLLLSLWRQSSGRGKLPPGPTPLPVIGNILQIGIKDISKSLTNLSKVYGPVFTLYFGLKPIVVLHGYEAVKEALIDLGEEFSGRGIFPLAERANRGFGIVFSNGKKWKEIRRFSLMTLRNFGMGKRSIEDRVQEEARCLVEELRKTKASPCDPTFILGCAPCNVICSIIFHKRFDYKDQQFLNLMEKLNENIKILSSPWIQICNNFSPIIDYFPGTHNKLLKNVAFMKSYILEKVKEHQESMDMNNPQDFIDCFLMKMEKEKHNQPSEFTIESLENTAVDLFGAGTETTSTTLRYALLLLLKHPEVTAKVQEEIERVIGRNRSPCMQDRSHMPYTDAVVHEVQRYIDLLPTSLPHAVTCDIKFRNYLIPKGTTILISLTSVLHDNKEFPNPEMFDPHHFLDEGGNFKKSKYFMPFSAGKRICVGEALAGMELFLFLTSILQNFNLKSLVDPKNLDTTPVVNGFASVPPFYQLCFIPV

[1] = target: T1, Heat shock factor protein 1 (Mus musculus, UniProt P38532); assay: decrease of HSF1-responsive luciferase luminescence – cell-based, NIH3T3, dose retest, confirmation (AID 2382); assay type: functional;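 note: NIH3T3 fibroblasts with HSF1-driven luciferase reporter stressed by proteasome inhibitor MG132; luminescence from HSF1-driven luciferase expression after 8 hours of MG132 stress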
T1 sequence (P38532 whole entry): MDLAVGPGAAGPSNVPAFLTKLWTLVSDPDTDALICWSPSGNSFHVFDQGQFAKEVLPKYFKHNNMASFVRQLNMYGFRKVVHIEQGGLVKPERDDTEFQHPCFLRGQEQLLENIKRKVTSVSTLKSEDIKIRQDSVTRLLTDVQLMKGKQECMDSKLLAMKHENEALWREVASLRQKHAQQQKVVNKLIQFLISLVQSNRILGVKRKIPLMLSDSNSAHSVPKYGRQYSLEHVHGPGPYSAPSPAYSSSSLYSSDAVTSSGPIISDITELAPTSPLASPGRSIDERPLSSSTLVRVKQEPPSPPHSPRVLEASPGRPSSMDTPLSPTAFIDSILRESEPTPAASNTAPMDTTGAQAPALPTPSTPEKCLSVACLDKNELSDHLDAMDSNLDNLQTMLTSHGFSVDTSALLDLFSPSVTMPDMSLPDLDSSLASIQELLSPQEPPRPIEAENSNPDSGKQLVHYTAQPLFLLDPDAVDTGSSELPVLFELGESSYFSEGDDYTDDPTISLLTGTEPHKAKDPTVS

[2] = target: T2, Rac GTPase-activating protein 1 (Homo sapiens, UniProt Q9H0H5); assay: blockers of MgcRacGAP-driven Rac1 GTP hydrolysis – biochemical, ADP Hunter fluorescence, primary and confirmatory, confirmation (AID 624330); assay type: functional
T2 sequence (Q9H0H5 whole entry): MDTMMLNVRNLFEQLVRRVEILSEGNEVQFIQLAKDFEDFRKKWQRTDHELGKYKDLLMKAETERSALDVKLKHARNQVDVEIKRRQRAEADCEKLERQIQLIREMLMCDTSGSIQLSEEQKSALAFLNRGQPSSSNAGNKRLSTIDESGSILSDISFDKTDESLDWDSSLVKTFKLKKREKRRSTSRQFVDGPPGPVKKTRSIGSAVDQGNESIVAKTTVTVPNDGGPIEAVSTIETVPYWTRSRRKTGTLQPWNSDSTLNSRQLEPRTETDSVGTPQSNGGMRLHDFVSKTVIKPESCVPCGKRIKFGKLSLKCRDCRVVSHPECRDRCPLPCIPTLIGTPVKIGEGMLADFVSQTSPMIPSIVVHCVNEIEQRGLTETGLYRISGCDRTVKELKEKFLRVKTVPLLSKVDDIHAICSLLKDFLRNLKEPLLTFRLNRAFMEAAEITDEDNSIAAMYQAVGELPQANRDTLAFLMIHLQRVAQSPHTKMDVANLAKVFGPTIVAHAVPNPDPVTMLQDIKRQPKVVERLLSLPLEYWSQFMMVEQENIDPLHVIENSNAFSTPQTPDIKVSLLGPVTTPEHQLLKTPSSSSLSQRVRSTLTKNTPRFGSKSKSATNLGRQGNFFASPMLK

[3] = viability of uninfected HEp-2 cells – cell-based, HTS, cytotoxicity control for RSV inhibitor project, dose response (AID 2410); assay type: functional; details: human respiratory syncytial virus
Cytochrome P450 2D6 = Cytochrome P450 2D6 (Homo sapiens, UniProt P10635);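 note: CYP2D6 member of a cytochrome P450 panel assay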
Sequence of Cytochrome P450 2D6 (P10635 whole entry): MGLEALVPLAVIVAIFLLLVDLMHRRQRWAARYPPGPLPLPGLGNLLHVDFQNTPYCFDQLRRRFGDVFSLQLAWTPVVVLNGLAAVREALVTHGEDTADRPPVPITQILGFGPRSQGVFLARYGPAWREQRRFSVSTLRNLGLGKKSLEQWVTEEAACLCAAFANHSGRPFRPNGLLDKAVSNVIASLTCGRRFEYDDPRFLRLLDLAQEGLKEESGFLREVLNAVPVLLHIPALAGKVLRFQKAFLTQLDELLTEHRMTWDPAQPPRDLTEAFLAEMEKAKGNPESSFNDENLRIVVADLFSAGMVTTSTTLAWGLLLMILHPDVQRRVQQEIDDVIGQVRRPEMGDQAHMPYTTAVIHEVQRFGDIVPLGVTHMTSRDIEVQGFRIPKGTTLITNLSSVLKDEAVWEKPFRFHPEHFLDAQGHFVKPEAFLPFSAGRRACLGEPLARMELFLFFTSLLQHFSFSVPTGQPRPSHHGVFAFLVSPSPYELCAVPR

[4] = tested on: Streptococcus sp. 'group A'; assay: Streptococcus pyogenes SK(-)GAS viability under kanamycin – luminescence, BacTiterGlo, confirmation, counter-screen for streptokinase expression inhibitor project, dose response (AID 1900); assay type: functional, organism-based
Streptococcus = assay: GAS UMAA2166 growth inhibition – luminescence, BacTiterGlo, counter-screen for streptokinase expression inhibitor project, dose response (AID 1915); assay type: functional, organism-based;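 note: potency for reduction of bacterial viability or growth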
H9c2 = assay: cells; assay type: functional, cell-based; details: Rattus norvegicus, H9c2, Myocardium
Cytochrome P450 1A2 = target: T3, Cytochrome P450 1A2 (Homo sapiens, UniProt P05177);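 note: PubChem cytochrome P450 panel assay, CYP1A2 panel member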
T3 sequence (P05177 whole entry): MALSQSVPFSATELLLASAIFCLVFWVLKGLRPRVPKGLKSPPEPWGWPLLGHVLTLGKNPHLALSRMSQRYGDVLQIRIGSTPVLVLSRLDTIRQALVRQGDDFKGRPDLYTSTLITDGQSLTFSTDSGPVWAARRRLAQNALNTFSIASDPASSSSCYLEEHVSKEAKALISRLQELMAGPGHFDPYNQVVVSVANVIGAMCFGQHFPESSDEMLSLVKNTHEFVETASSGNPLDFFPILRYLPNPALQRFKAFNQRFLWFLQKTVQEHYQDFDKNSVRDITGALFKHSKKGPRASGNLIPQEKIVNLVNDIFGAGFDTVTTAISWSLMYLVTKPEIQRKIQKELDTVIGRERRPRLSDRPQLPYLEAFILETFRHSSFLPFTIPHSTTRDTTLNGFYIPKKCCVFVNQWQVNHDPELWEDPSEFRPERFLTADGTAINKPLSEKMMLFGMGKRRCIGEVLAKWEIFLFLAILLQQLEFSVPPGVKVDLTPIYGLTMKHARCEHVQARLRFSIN

[5] = Luminescence Cell-Based Dose Retest to Confirm Inhibitors of Cancer Stem Cells. [Related pubchem assays (depositor defined):AID2717, AID2721]; assay type: functional; details: Homo sapiens
Paired box protein Pax-8 = Paired box protein Pax-8 (Homo sapiens, UniProt Q06710); assay: PAX8 transcriptional activity inhibition in RMG-I – RMG-I cells, luciferase, cherry-pick, dose response (AID 687027); assay type: functional, cell-based;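 note: luciferase reporter driven by Pax8 target thyroperoxidase promoter measured by SteadyGlo luminescence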
Sequence of Paired box protein Pax-8 (Q06710 whole entry): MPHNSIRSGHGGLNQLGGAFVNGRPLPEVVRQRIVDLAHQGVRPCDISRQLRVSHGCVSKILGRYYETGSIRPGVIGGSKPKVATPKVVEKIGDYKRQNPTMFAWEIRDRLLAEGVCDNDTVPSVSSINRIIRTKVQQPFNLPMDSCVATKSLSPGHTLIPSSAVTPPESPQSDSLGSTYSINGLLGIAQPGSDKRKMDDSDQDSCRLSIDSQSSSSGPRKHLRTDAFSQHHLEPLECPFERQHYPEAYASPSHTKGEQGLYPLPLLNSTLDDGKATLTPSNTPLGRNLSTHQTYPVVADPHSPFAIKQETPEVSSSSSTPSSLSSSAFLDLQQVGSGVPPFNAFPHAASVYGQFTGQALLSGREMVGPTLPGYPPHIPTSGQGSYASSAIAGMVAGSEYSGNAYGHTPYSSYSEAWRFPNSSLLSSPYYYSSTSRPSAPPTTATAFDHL

Sequence of Cytochrome P450 3A4 (P08684 whole entry): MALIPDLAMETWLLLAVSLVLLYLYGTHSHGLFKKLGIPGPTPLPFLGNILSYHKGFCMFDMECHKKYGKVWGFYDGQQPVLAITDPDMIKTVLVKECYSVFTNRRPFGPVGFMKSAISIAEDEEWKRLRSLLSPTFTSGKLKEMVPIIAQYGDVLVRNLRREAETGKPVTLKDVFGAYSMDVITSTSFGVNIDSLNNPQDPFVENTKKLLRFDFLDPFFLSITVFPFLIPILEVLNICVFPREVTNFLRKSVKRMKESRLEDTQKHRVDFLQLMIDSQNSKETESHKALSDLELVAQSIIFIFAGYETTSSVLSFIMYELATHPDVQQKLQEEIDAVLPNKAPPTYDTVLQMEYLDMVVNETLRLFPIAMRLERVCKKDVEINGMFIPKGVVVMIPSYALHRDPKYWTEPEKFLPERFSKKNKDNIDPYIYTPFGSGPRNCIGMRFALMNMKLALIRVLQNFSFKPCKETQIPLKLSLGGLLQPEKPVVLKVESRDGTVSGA

## NCC#Cc1ccccc1
Cytochrome P450 3A4
  AC50: 15.8 µM (inconclusive)

## CCCOc1ccc(C2C(=O)N(C3CCCCC3)CC(=O)N2C2CC2)cc1OC (stereo not given)
Cytochrome P450 3A4
  AC50: 17.8 µM (inconclusive)
Cytochrome P450 2C19
  AC50: 39.8 µM (inconclusive)

## CS(=O)(=O)Nc1ccc(C(=O)N2CCN(c3ccccc3)CC2)cc1
Cytochrome P450 3A4
  AC50: 25.1 µM (inconclusive)
Cytochrome P450 2C19
  AC50: 39.8 µM (inconclusive)
Cytochrome P450 2C9
  AC50: 7.94 µM (inconclusive)

## Cc1cn2c(nc(=O)c3cccnc32)s1
[1]
  EC50: > 195 µM (not active)

## COc1ccc(NC2CCCN(C(=O)c3ccccc3N3CCOCC3)C2)cc1OC (stereo not given)
[2]
  IC50: 198 µM (active)

## NC(=O)c1cc2n(n1)C(C(F)(F)F)CC(c1ccco1)N2 (stereo not given)
[3]
  CC50: 24.5 µM (active)

## COc1cc(C=O)ccc1OC(=O)c1ccc(C(C)C)cc1
[1]
  EC50: > 195 µM (not active)

## Cc1ccc(/C=C/C(=O)OCC(=O)NCCN2C(=O)CSC2=O)o1
[1]
  EC50: > 195 µM (not active)

## CCOCc1cnc(C)nc1NCC(=O)c1c(C)[nH]c2ccccc12
Cytochrome P450 2D6
  AC50: 12.6 µM (inconclusive)

## CC(=O)c1ccc(NC(S)=Nc2ccc(Br)c(Cl)c2)cc1
[4]
  EC50: 7.95 µM (active)
Streptococcus
  EC50: 8.74 µM (active)

## COc1ccc(/C=C/C(=O)N2CCC(C(N)=O)CC2)cc1S(=O)(=O)N1CCOCC1
[1]
  EC50: > 195 µM (not active)

## CC(C)(C)C(CN1CCCC1)OC(=O)c1ccccc1 (stereo not given)
[1]
  EC50: 19.7 µM (active)

## CCn1c(=O)c2c(=O)cc(O)oc2c2ccccc21
Cytochrome P450 3A4
  AC50: 0.631 µM (inconclusive)
Cytochrome P450 2C19
  AC50: 3.55 µM (inconclusive)

## O=C(C[N+]12CN3CN(CN(C3)C1)C2)c1ccc(-c2ccccc2)cc1
Cytochrome P450 3A4
  AC50: 3.16 µM (inconclusive)
Cytochrome P450 2C9
  AC50: 3.16 µM (inconclusive)

## COc1cc(NS(=O)(=O)c2ccc(NC(=O)/C=C/C(=O)O)cc2)nc(OC)n1
[1]
  EC50: > 195 µM (not active)

## COC(=O)C(C)N=C(S)N1CCN(c2c(F)cc3c(=O)c(C(=O)O)cn(C4CC4)c3c2OC)CC1C (stereo not given)
[4]
  EC50: 2.85 µM (active)
Streptococcus
  EC50: 4.39 µM (active)

## CCOCC(=O)Nc1ccc([N+](=O)[O-])cc1Cl
[3]
  CC50: > 50 µM (active)

## CC1CN(C(=O)c2cc(S(=O)(=O)N(C)c3ccc(F)cc3)ccc2Cl)CC(C)O1 (stereo not given)
[1]
  EC50: > 195 µM (not active)

## CCOC(=O)c1cccc(NC(=O)COc2ccc([N+](=O)[O-])cc2)c1
Cytochrome P450 3A4
  AC50: 15.8 µM (inconclusive)

## Cc1ccc(-c2nnn(CC(=O)N(Cc3ccco3)C(C(=O)NC(C)(C)C)c3ccc(C)o3)n2)o1 (stereo not given)
[3]
  CC50: > 50 µM (active)

## O=c1cnc2cnc(Nc3ccccc3)nc2n1C[C@H]1CCCO1
Cytochrome P450 3A4
  AC50: 31.6 µM (inconclusive)

## O=C(CSc1nc(O)c2ccccc2n1)c1ccccc1
H9c2
  IC50: > 79 µM (inactive)

## CCc1ccc(NC(=S)N2CCN(c3cccc(C(F)(F)F)c3)CC2)cc1
Cytochrome P450 2C19
  AC50: 4.47 µM (inconclusive)
Cytochrome P450 2D6
  AC50: 0.01 µM (inconclusive)

## CCn1c2ccccc2c2cc(NC(=O)CNC)ccc21
[2]
  IC50: 100 µM (active)

## COc1ccccc1-c1cc(NCc2cnc(C)cn2)ncn1
Cytochrome P450 2D6
  AC50: 20 µM (inconclusive)

## NCCSC(c1ccccc1)c1ccccc1
Cytochrome P450 3A4
  AC50: 3.16 µM (inconclusive)
Cytochrome P450 1A2
  AC50: 1.58 µM (inconclusive)

## CCc1c2c(nc3cccc(OC)c13)OC(CC)C2 (stereo not given)
Cytochrome P450 2C19
  AC50: 20 µM (inconclusive)
Cytochrome P450 2D6
  AC50: 39.8 µM (inconclusive)

## O=C(Cn1ccc([N+](=O)[O-])n1)NCc1cccs1
Cytochrome P450 3A4
  AC50: 39.8 µM (inconclusive)
Cytochrome P450 2C19
  AC50: 14.1 µM (inconclusive)
Cytochrome P450 1A2
  AC50: 15.8 µM (inconclusive)

## Cc1ccnc(NC(=O)c2cccc(S(=O)(=O)N3CCN(c4ccc(F)cc4)CC3)c2)c1
[3]
  CC50: 13.4 µM (active)

## O=C(c1ccccc1Cc1ccccc1)N1CCN(S(=O)(=O)c2ccccc2Br)CC1
[3]
  CC50: 33.7 µM (active)

## COC(=O)Nc1nc2cc(-c3nnc(O)c4ccccc34)ccc2[nH]1
[5]
  AC50: 11.2 µM (active)

## Cc1cc(OCC(=O)NCCO)cc(C)c1Cl
[1]
  EC50: > 195 µM (not active)

## C=CCNC(=O)c1c(O)c2cccc3c2n(c1=O)CCC3
[3]
  CC50: > 50 µM (active)

## Brc1cccc(OCCN2CCOCC2)c1
[2]
  IC50: 134 µM (active)

## Cc1ccc(C)c(N2CCN(C(=O)C3CCCN(c4ncnc5c4nc4n5CCCCC4)C3)CC2)c1 (stereo not given)
[3]
  CC50: 20.6 µM (active)

## Cc1ccc(COn2c(-c3ccc(Cl)cc3)nc3ccc([N+](=O)[O-])cc32)cc1
Cytochrome P450 3A4
  AC50: 3.55 µM (inconclusive)
Cytochrome P450 2C9
  AC50: 8.91 µM (inconclusive)

## C=C(Cl)COc1ccc2c(CCCC)cc(=O)oc2c1
[3]
  CC50: 38.2 µM (active)

## COCCn1c(=O)c(-c2ccc(OC)cc2)nc2cnc(Oc3cccc(Cl)c3)nc21
Cytochrome P450 3A4
  AC50: 2 µM (inconclusive)
Cytochrome P450 1A2
  AC50: 6.31 µM (inconclusive)

## S=C(c1ccc(-c2ccc(Cl)c(Cl)c2)o1)N1CCOCC1
[3]
  CC50: 29.4 µM (active)

## CN(CC(=O)Nc1ccccc1Cl)C(=O)CCc1nc(O)c2ccccc2n1
H9c2
  IC50: 23.8 µM (active)

## COc1cccc(-c2nc(CS(=O)(=O)CC(=O)NCCCN3CC(C)CC(C)C3)c(C)o2)c1 (stereo not given)
Paired box protein Pax-8
  AC50: 19.1 µM (active)

## COc1cc(OC)cc(-c2sc3ccc(OC)cc3c2-c2ccc3cc[nH]c3c2)c1
[5]
  AC50: 1.87 µM (active)

## Oc1nc2ccccc2n1C1CCN(C(c2cccc3ccccc23)c2nnnn2-c2ccc3c(c2)OCCO3)CC1 (stereo not given)
Paired box protein Pax-8
  AC50: 3.78 µM (active)

## C=CC(C)(C)c1[nH]c2ccccc2c1C1=C(O)C(O)=C(c2c[nH]c3c(CC=C(C)C)cccc23)C(=O)C1=O
Cytochrome P450 3A4
  AC50: 25.1 µM (inconclusive)

## COc1cc(-c2nnc(-c3cc(-c4ccccc4)nc4ccccc34)o2)cc(OC)c1OC
H9c2
  IC50: 10.5 µM (active)

## Cc1cccc(/N=C/c2c(O)ccc3oc4c(c23)CCCC4)n1
H9c2
  IC50: > 79 µM (inactive)

## COc1cc(/C=N/NC(=O)C2(O)c3ccccc3-c3ccccc32)ccc1O
[2]
  IC50: 47.6 µM (active)

## COc1ccc(N/N=C(/C(C)=O)N2CCCc3ccccc32)cc1
[5]
  AC50: 1.58 µM (active)

## Cc1ccc(N/N=C/c2cccnc2)cc1
[5]
  AC50: 4.39 µM (active)

## O=C(CSc1nc2ccccc2s1)N/N=C/c1ccccc1C(=O)O
[1]
  EC50: 5.59 µM (active)

## O=C(CNC(=O)c1cccs1)N/N=C/c1ccc(O)cc1O
[2]
  IC50: 63.7 µM (active)

## O=C(/C(=N/Nc1cccc(C(F)(F)F)c1)C(=O)C(F)(F)F)c1cccs1
[5]
  AC50: 1.76 µM (active)

## Cc1ccccc1C(=O)Nc1nnc(CC(=O)N/N=C/c2ccco2)s1
[1]
  EC50: > 195 µM (not active)

## COc1ccc(OC)c(-c2nnc3n2N=C(c2ccc(OC(F)F)c(OCC4CC4)c2)CS3)c1
[5]
  AC50: 7.23 µM (active)

## COC(=O)C(CC(C)C)NC(=O)C(N)Cc1ccccc1 (stereo not drawn) (H-Phe-Leu-OMe; configuration not given here)
Cytochrome P450 2C19
  AC50: 17.8 µM (inconclusive)
Cytochrome P450 2D6
  AC50: 15.8 µM (inconclusive)
